How the values were obtained:
[1] = Stability in mouse serum at 37 °C (RCP by radio-HPLC); assay type: in vitro ADME; conditions: 4 h
Method: (§1) The complexes were determined by ITLC/SG of the ACD system and radio-HPLC. The ITLC/SG trip was cut into 10 equal parts, and radioactive counting of ITLC strips was determined by a γ-counter. ITLC results of both complexes were as follows: in ACD solution, [^99mTc]Tc-CN5FA and [^99mTc]Tc-CNPFA stayed at the origin (Rf = 0–0.1), while ^99mTcO4^− (Rf = 0.9–1.0) and ^99mTcO2·nH2O (Rf = 0.8–1.0) were moved to the front. Radio-HPLC was analyzed by a mobile phase system consisting of 0.1% TFA water (solvent A) and 0.1% TFA acetonitrile (solvent B) with a gradient of 0−2 min 10% B, 2−5 min 10%−90% B, 10−20 min 90% B, and 20−25 min 90%−10% B (system B) at a flow rate of 1 mL/min. All experiments were performed in triplicate.
(§2) The stability of [^99mTc]Tc-CN5FA and [^99mTc]Tc-CNPFA in vitro was evaluated by measuring the RCP of the complexes. Stability in saline was achieved by holding the solution at room temperature for 4 h. Stability in the serum was achieved by mixing 100 μL of [^99mTc]Tc-CN5FA or [^99mTc]Tc-CNPFA with 200 μL of mouse serum at 37 °C for 4 h. After precipitation using acetonitrile, centrifugation, and concentration, the solutions were analyzed by radio-HPLC.

[2] = Stability in saline / radiolabeling solution at room temperature (RCP by radio-HPLC); assay type: physicochemical; conditions: 4 h
Method: as §1, §2

KB tumor-bearing mice [3] = assay: Biodistribution study in KB tumor-bearing mice; assay type: in vivo, BALB/c nude mice; conditions: for Tumor uptake: KB tumor
Method: The biodistribution experiments were divided into normal groups and inhibition groups (n = 3), in which the inhibition group was injected with inhibitor (about 4 × 10^4 µg/kg) 30 min in advance. The KB tumor-bearing mice were decapitated 30 and 120 min after the tail vein injection of 0.1 mL labeled solution (about 7.4 × 10^4 Bq). The heart, liver, lung, kidney, spleen, stomach, bone, muscle, intestine, tumor, blood, and other related tissues and organs were wiped clean and weighed, and the radioactivity count was measured. Each tissue per gram of injection dose (%ID/g) was calculated.

[4] = molecular target: T1, folate receptor (KB cells) (Homo sapiens, UniProt P15328); assay: In vitro competitive binding with KB cells; conditions: 37 °C, 2 h, competitive binding with inhibitor
T1 construct: endogenous in cells; host or cells: KB cells
Method: KB cells were cultured with FFRPMI 1640 medium 24 h in advance on a 48-well plate with 5 × 10^4 cells per well. The labeling solution was diluted to 5 μCi/mL with the same medium after growing, and the inhibitor was prepared at different concentrations. The 48-well plates were divided into eight groups, and each group was incubated with 100 μL of inhibitor solution, 100 μL of diluted labeled solution (5 μCi/mL), and 200 μL of medium at 37 °C for 2 h.
After removing the cell plate from the incubator, the medium was removed, and the cells were washed with PBS (0.1 M, pH 7.4). The washed cells were lysed with NaOH (1 M) for 5 min. Pyrolysates were collected in the hoses, and the radioactivity count of each hose was measured by a γ-counter. The data were analyzed with GraphPad Prism 5.0 and nonlinearly fit to the log IC50 ± SD value.

KB tumor-bearing mice [5] = assay: SPECT/CT imaging study in KB tumor-bearing mice; assay type: in vivo, BALB/c nude mice; conditions: 2 h post injection, about 18.5 MBq i.v.
Method: The SPECT/CT imaging experiments were also divided into a normal group and an inhibition group (n = 3). The labeled solution (about 18.5 MBq) was injected into the tail vein of nude mice bearing KB tumor. The inhibition group was injected with 100 µg FA (about 4 × 10^4 µg/kg) 30 min in advance. After 2 h, the SPECT/CT scan was performed in anesthetized mice by using 1.5% isoflurane. The SPECT acquisition (peak value 140 keV, 20% width, 90° rotation, MMP 919 Collimator) was performed after 4 min of CT scanning (512 views, 2 × 2 binding, 75 kV, exposure time 230 ms). SPECT/CT images were made using HiSPECT software and vivoquant 2.5 software.

[6] = Partition coefficient, 1-octanol / phosphate buffer pH 7.4; assay type: physicochemical; conditions: 1-octanol / phosphate buffer 0.025 M
Method: The partition coefficient was measured as follows: 1.9 mL of phosphate buffer solution (0.025 M, pH 7.4), 2.0 mL of 1-octanol, and 0.1 mL of ^99mTc-CN5FA or ^99mTc-CNPFA solution were added to the centrifuge tube, and the sample was swirled for 5 min and centrifuged for 5 min (3000 r/min). Then, the radioactivity counts of the two phases were measured by taking 0.1 mL from the organic phase and the water phase. The partition coefficient P was calculated. The final partition coefficient was expressed as log P ± SD.

[7] = 2 h p.i., block: FA about 4 × 10^4 µg/kg 30 min in advance

T1 sequence (P15328 25-257): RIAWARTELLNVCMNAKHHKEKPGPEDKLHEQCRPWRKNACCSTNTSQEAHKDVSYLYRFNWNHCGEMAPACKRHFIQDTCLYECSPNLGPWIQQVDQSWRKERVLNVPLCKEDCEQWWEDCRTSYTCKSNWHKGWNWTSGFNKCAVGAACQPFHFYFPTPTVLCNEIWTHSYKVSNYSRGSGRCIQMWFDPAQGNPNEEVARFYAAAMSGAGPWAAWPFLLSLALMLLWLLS

Q: For `[99Tc+].[C-]#[N+]CCCCCC(=O)NCCNC(=O)CC[C@H](NC(=O)c1ccc(NCc2cnc3nc(N)[nH]c(=O)c3n2)cc1)C(=O)O.[C-]#[N+]CCCCCC(=O)NCCNC(=O)CC[C@H](NC(=O)c1ccc(NCc2cnc3nc(N)[nH]c(=O)c3n2)cc1)C(=O)O.[C-]#[N+]CCCCCC(=O)NCCNC(=O)CC[C@H](NC(=O)c1ccc(NCc2cnc3nc(N)[nH]c(=O)c3n2)cc1)C(=O)O.[C-]#[N+]CCCCCC(=O)NCCNC(=O)CC[C@H](NC(=O)c1ccc(NCc2cnc3nc(N)[nH]c(=O)c3n2)cc1)C(=O)O.[C-]#[N+]CCCCCC(=O)NCCNC(=O)CC[C@H](NC(=O)c1ccc(NCc2cnc3nc(N)[nH]c(=O)c3n2)cc1)C(=O)O.[C-]#[N+]CCCCCC(=O)NCCNC(=O)CC[C@H](NC(=O)c1ccc(NCc2cnc3nc(N)[nH]c(=O)c3n2)cc1)C(=O)O` [[^99mTc]Tc-CN5FA], which RCP after incubation [1] is on record?
A: Its RCP after incubation is “more than 95%”.

Q: And the RCP after incubation [2]?
A: The RCP after incubation was “more than 95%”.

Q: What about the “T/B (tumor/blood ratio)” value (KB tumor-bearing mice [3]; 0.5 h p.i.) of the same compound?
A: The value was 1.28.

Q: What about the “T/M (tumor/muscle ratio)” value (KB tumor-bearing mice [3]; 0.5 h p.i.) of the same compound?
A: The value was 1.76.

Q: What about the Blood uptake (KB tumor-bearing mice [3]; 0.5 h p.i., i.v., n = 3) of the same compound?
A: The Blood uptake was 2.36 ± 0.10 %ID/g.

Q: What about the Bone uptake (KB tumor-bearing mice [3]; 0.5 h p.i., i.v., n = 3) of the same compound?
A: The Bone uptake was 1.03 ± 0.09 %ID/g.

Q: And the Heart uptake (KB tumor-bearing mice [3]; 0.5 h p.i., i.v., n = 3)?
A: The Heart uptake was 2.60 ± 0.16 %ID/g.

Q: What about the Intestines uptake (KB tumor-bearing mice [3]; 0.5 h p.i., i.v., n = 3) of the same compound?
A: Its Intestines uptake is 2.35 ± 0.79 %ID/g.

Q: What about the Kidney uptake (KB tumor-bearing mice [3]; 0.5 h p.i., i.v., n = 3) of the same compound?
A: The Kidney uptake was 47.20 ± 2.99 %ID/g.

Q: And the Liver uptake (KB tumor-bearing mice [3]; 0.5 h p.i., i.v., n = 3)?
A: The Liver uptake was 13.91 ± 1.27 %ID/g.

Q: And the Lung uptake (KB tumor-bearing mice [3]; 0.5 h p.i., i.v., n = 3)?
A: Its Lung uptake is 2.88 ± 0.09 %ID/g.

Q: And the Muscle uptake (KB tumor-bearing mice [3]; 0.5 h p.i., i.v., n = 3)?
A: The Muscle uptake was 1.72 ± 0.10 %ID/g.

Q: What about the Spleen uptake (KB tumor-bearing mice [3]; 0.5 h p.i., i.v., n = 3) of the same compound?
A: Its Spleen uptake is 3.07 ± 0.03 %ID/g.

Q: And the Stomach uptake (KB tumor-bearing mice [3]; 0.5 h p.i., i.v., n = 3)?
A: The Stomach uptake was 2.17 ± 0.70 %ID/g.

Q: What about the Thyroid uptake (KB tumor-bearing mice [3]; 0.5 h p.i., i.v., n = 3) of the same compound?
A: The Thyroid uptake was 0.05 ± 0.00 %ID.

Q: What about the “T/M (tumor/muscle ratio)” value (KB tumor-bearing mice [3]; 2 h p.i.) of the same compound?
A: Its value is 1.91.

Q: And the Blood uptake (KB tumor-bearing mice [3]; [7])?
A: The Blood uptake was 1.05 ± 0.08 %ID/g.

Q: What about the Bone uptake (KB tumor-bearing mice [3]; [7]) of the same compound?
A: The Bone uptake was 1.02 ± 0.18 %ID/g.

Q: What about the Heart uptake (KB tumor-bearing mice [3]; [7]) of the same compound?
A: Its Heart uptake is 0.84 ± 0.05 %ID/g.

Q: What about the Intestines uptake (KB tumor-bearing mice [3]; [7]) of the same compound?
A: The Intestines uptake was 1.39 ± 0.15 %ID/g.

Q: What about the Kidney uptake (KB tumor-bearing mice [3]; [7]) of the same compound?
A: Its Kidney uptake is 35.40 ± 4.08 %ID/g.

Q: And the Liver uptake (KB tumor-bearing mice [3]; [7])?
A: Its Liver uptake is 10.22 ± 0.43 %ID/g.

Q: And the Lung uptake (KB tumor-bearing mice [3]; [7])?
A: The Lung uptake was 2.27 ± 0.16 %ID/g.

Q: What about the Muscle uptake (KB tumor-bearing mice [3]; [7]) of the same compound?
A: The Muscle uptake was 0.61 ± 0.10 %ID/g.

Q: And the Spleen uptake (KB tumor-bearing mice [3]; [7])?
A: Its Spleen uptake is 4.52 ± 0.38 %ID/g.

Q: And the Stomach uptake (KB tumor-bearing mice [3]; [7])?
A: The Stomach uptake was 1.70 ± 0.16 %ID/g.

Q: And the Thyroid uptake (KB tumor-bearing mice [3]; [7])?
A: Its Thyroid uptake is 0.03 ± 0.00 %ID.

Q: And the Blood uptake (KB tumor-bearing mice [3]; 2 h p.i., i.v., n = 3)?
A: Its Blood uptake is 1.08 ± 0.03 %ID/g.

Q: What about the Bone uptake (KB tumor-bearing mice [3]; 2 h p.i., i.v., n = 3) of the same compound?
A: Its Bone uptake is 0.87 ± 0.16 %ID/g.

Q: What about the Heart uptake (KB tumor-bearing mice [3]; 2 h p.i., i.v., n = 3) of the same compound?
A: Its Heart uptake is 2.29 ± 0.26 %ID/g.

Q: And the Intestines uptake (KB tumor-bearing mice [3]; 2 h p.i., i.v., n = 3)?
A: Its Intestines uptake is 1.38 ± 0.15 %ID/g.

Q: What about the Kidney uptake (KB tumor-bearing mice [3]; 2 h p.i., i.v., n = 3) of the same compound?
A: Its Kidney uptake is 51.92 ± 3.10 %ID/g.

Q: And the Liver uptake (KB tumor-bearing mice [3]; 2 h p.i., i.v., n = 3)?
A: The Liver uptake was 11.88 ± 1.22 %ID/g.

Q: And the Lung uptake (KB tumor-bearing mice [3]; 2 h p.i., i.v., n = 3)?
A: The Lung uptake was 2.78 ± 0.57 %ID/g.

Q: And the Muscle uptake (KB tumor-bearing mice [3]; 2 h p.i., i.v., n = 3)?
A: Its Muscle uptake is 1.27 ± 0.03 %ID/g.

Q: And the Spleen uptake (KB tumor-bearing mice [3]; 2 h p.i., i.v., n = 3)?
A: The Spleen uptake was 3.08 ± 0.42 %ID/g.

Q: What about the Stomach uptake (KB tumor-bearing mice [3]; 2 h p.i., i.v., n = 3) of the same compound?
A: Its Stomach uptake is 2.00 ± 0.33 %ID/g.

Q: And the Thyroid uptake (KB tumor-bearing mice [3]; 2 h p.i., i.v., n = 3)?
A: Its Thyroid uptake is 0.03 ± 0.01 %ID.

Q: And the Tumor uptake (KB tumor-bearing mice [3]; 0.5 h p.i., i.v., n = 3)?
A: Its Tumor uptake is 3.03 ± 0.10 %ID/g.

Q: And the Tumor uptake (KB tumor-bearing mice [3]; [7])?
A: Its Tumor uptake is 1.53 ± 0.10 %ID/g.

Q: And the Tumor uptake (KB tumor-bearing mice [3]; 2 h p.i., i.v., n = 3)?
A: Its Tumor uptake is 2.42 ± 0.44 %ID/g.

Q: And the IC50 [4]?
A: The IC50 was 37.9 ± 0.41 nM.

Q: And the “Visualization of tumor lesions by SPECT/CT” value (KB tumor-bearing mice [5])?
A: Its value is “clearly visualized”.

Q: What about the “log P” value [6] of the same compound?
A: Its value is −1.92 ± 0.15.

— publication PMC8348780, “Preparation and Evaluation of Novel Folate Isonitrile ^99mTc Complexes as Potential Tumor Imaging Agents to Target Folate Receptors” (Molecules, 2021)
